Assay results taken from US8877946B2, “Benzylidene-indolinone compounds and their medical use” (National University of Singapore, priority 2011, dated 2014).
In brackets after ≈: the same amount, converted by molar mass. Read-outs that look alike come from different tables or passages of the source.

Legend:
[1] = tested on: AFP mRNA; assay: Determination of AFP mRNA levels by quantitative real-time PCR in HuH7 cells; format: cell-based, human; settings: 10 μM, 24 h, FIG. 1
Text: The primer sequences were: […] reverse); [NT] (Human GADPH forward); [NT] (Human GADPH reverse).

[2] = tested on: HuH7 cells; assay: MTT antiproliferative (growth inhibition) assay on HuH7 cells; format: cell-based, human; settings: Homo sapiens, Huh-7, MTT
How it was run: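 Cells were exposed to compound for 72 h at 37° C, 5% CO2, with 0.5% v/v DMSO (1% if poorly soluble), then given MTT for 3 h. Formazan was dissolved in DMSO/Sorenson buffer and absorbance read at 570 nm; IC50 from sigmoidal fits of % viability versus log concentration.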

[3] = tested on: CYP1A1; assay: EROD assay, induction of CYP1A1 activity in HuH7 cells; format: cell-based, human; settings: for induction of CYP450 (CYP1A1, EROD) activity: broad range of concentrations spanning growth inhibitory concentrations, FIG. 2
Text: The induction of CYP1A1 activity was monitored by the 7-ethoxyresorufin O-deethylase (EROD) assay. EROD is a CYP1A1 enzyme and induction of its activity would result in the formation of more resorufin, a fluorescent compound. By monitoring resorufin levels in cells that are exposed to test compound and comparing the levels with those in untreated cells, it is possible to identify compounds that induce EROD activity.
Readings were taken at λexcitation of 530 nm and λemission of 590 nm on a fluorometer (Name the plate reader). Background fluorescence of the test compound was determined at the same wavelengths to take into account its contribution to the observed readings. Readings of “blank” wells that contained only media and “control” wells with only HuH7 cells in media (with 1% DMSO) were also determined. β-napthoflavone (BNF), a known inducer of CYP1A1 activity (give ref) was used as a positive control. The extent to which EROD activity was induced is given by the expression: Degree of induction=(FCells+Test Compound−FBlank)/(FControl−FBlank)
Where Fcells+test compound=fluorescence of wells containing treated cells; FBlank=fluorescence of well containing media only; FControl=fluorescence readings of wells containing untreated cells. The test compounds were not fluorescent at the excitation and emission wavelengths used in this assay. Two separate determinations were made for each concentration of test compound.

[4] = tested on: Hep G2; assay: MTT antiproliferative assay on Hep G2 cells; format: cell-based; settings: Homo sapiens, HepG2, 72 h
Text: (§1) MTT was purchased from DUCHEFA Biochemie ([…]). Sunitinib, and sodium dodecyl sulfate, bovine serum albuminwere obtained from Sigma Aldrich (Singapore). Sorafenib was purchase from Ontario Chem. Fetal bovine serum (FBS) was obtained from Invitrogen. Human hepatocellular carcinoma cells (HuH-7 and Hep G2), and human diploid fibroblast strain (IMR 90). HuH7 was obtained as gifts from Dr Ho Han Kiat, Department of Pharmacy, NUS. IMR90 and Hep G2 were purchased from American Type Culture Collection (ATCC). HuH-7 cells were cultured in DMEM (Dulbecco's Modified Eagle Medium, high glucose) with 10% v/v fetal bovine serum (FBS), 100 mg/L penicillin G and 100 mg/L streptomycin. IMR 90 cell were cultured in EMEM (Eagle's Minimum Essential Medium), with 10% v/v FBS and 100 mg/L penicillin G and 100 mg/L streptomycin. The cells were sub-cultured when HuH7 or Hep G2 reached a density of 70-80×10^5 cell/T75 flask, and IMR 90 reached 20×10^5 cell/T75 flask. Cells were used within 2-10 passages for viability experiments.
(§2) The anti-proliferative activity of the test compounds were determined by the MTT assay. An aliquot (200 μL, 3×10^4 cells/mL for HuH7, 3.75×10^4 cells/mL for Hep G2, and 2×10^4 cells/mL for IMR 90) of medium was added to each well of the microtitre plate. […] The existing medium was removed from each well and replaced by fresh medium (200 μL) containing a known concentration of test compound. The final concentration of DMSO in each well was maintained at 0.5% v/v. (1% v/v was also utilized if the compounds were not soluble) The test compounds were incubated with the cells for another 72 h at 37 deg C., 5% CO2. The medium was then removed from the well and replaced with FBS free medium (200 μL) and MTT (50 μL of 2 mg/mL solution in phosphate buffer saline, pH 7.4). The phosphate buffer saline comprises 10 mM of potassium phosphate and 137 mM sodium chloride. After incubation (3 h) at 37 deg C., 5% CO2, the supernatant was removed and a solution of 200 μL DMSO and 25 μL Sorenson buffer (0.1 M glycine, 0.1 M sodium chloride, adjusted to pH 10.5 with 0.1 M sodium hydroxide) was added to dissolve the formazan crystals in each well. Vehicle control were cells grown in 1% v/v DMSO/Medium for 72 h, 37 deg C., 5% CO2 while blank controls were wells that contained only 200 μL DMSO and 25 μL Sorenson buffer. Absorbances were measured at 570 nm on a microplate reader (Tecan, Infinite 200). The viability of cells at a given concentration of test compound was determined from the expression:
(§3) [formula] where abs_compound=absorbance of wells containing cells and test compound, abs_vehicle (Not the same as above. Change to abs_vehicle)=absorbance of vehicle control and abs_blank=absorbance of blank control.
(§4) Each concentration of test compound was evaluated at least 3 times on separate occasions, and two different stock solution were used. The IC50 value (concentration that inhibited 50% of cell growth) was determined from the sigmoidal curve obtained by plotting percentage viability versus logarithmic concentration of test compound using GraphPad Prism 5 (San Diego, USA).

[5] = tested on: phospho-STAT3 (Tyr 705); assay: Detection of phosphorylated STAT3 by immunoblot in HepG2; format: cell-based, human; settings: FIG. 3
Method: Rabbit polyclonal antibodies to STAT3 was obtained from Santa Cruz Biotechnology (Santa Cruz, Calif.), and rabbit monoclonal antibodies against phospho-STAT3 (Tyr 705) were purchased from Cell Signaling Technology (Beverly, Mass.).
For detection of phopho-STAT 3 and STAT 3, treated whole-cell extracts were lysed in lysis buffer (20 mM Tris (pH 7.4), 250 mM NaCl, 2 mM EDTA (pH 8.0), 0.1% Triton X-100, 0.01 mg/ml aprotinin, 0.005 mg/ml leupeptin, 0.4 mM PMSF, and 4 mM NaVO4). Lysates were then spun at 14,000 rpm for 10 min to remove insoluble material and resolved on a 7.5% SDS gel. After electrophoresis, the proteins were electrotransferred to a nitrocellulose membrane, blocked with 5% nonfat milk, and probed with anti-phospho-STAT 3 and anti-STAT 3 antibodies (1:1,000) overnight at 4° C. The blot was washed, exposed to HRP-conjugated secondary antibodies for 1 hr, and finally examined by chemiluminescence (ECL; GE Healthcare, Little Chalfont, Buckinghamshire, UK).

[6] = tested on: IMR 90; assay: MTT antiproliferative assay on non-malignant IMR 90 fibroblasts; format: cell-based; settings: non-malignant human lung fibroblast IMR 90, MTT, 72 h
Text: as §1, §2, §3, §4

[7] = Aqueous solubility on Multiscreen Solubility filter plates; format: physicochemical; settings: aqueous solution on Multiscreen Solubility filter plates, aqueous buffer, kinetic from dmso stock, mean of 3 determinations; for solubility at 3 h: pH 7.4, agitation time 3 h; for solubility at 24 h: pH 7.4, agitation time 24 h
Method: (§5) Solubility and PAMPA permeability (Pe) are important physicochemical indicators of drug-like character. Determination of aqueous solubility was carried out on Multiscreen® Solubility filter plates (Millipore-MSSLBPC10) from Millipore Corporation (MA, USA). The protocol (PC2445EN00, Millipore Corporation) was followed. Pe determinations were carried out on MultiScreen-IP PAMPA assay (donor) plates (MAIPNTR10) and MultiScreen Receiver Plates (MATRNPS50) from Millipore Corporation (USA) with 1% lecithin (L-α-phosphatidylcholine from lyophilized powder of egg yolk, Sigma Aldrich, USA) in dodecane (ReagentPlus®, Sigma Aldrich, USA) as lipid barrier.

[8] = PAMPA permeability (Pe); format: physicochemical; settings: for Pe (×10^−6 cm/s): 1% lecithin in dodecane, mean of 3 determinations
Method: as §5

[9] = 72 h (Table 9), read-out: IC50 (μM) HuH7
[10] = 72 h incubation, mean and SD of 3 or more independent determinations (Tables 1-8), read-out: IC 50

| IC50 [2, 9] [µM] | IC50 [2, 10] [µM] | induction of EROD activity at 0.05 μM ([3]; 0.05 μM, declined at higher concentrations) | solubility at 3 h [7] [µM] | solubility at 24 h [7] [µM] | Pe (×10^−6 cm/s) ([8]; pH 7.4, 6 h) | Pe (×10^−6 cm/s) ([8]; pH 7.4, 16 h) | decline of Pe with time ([8]; 6 h to 16 h) | Structure (SMILES) | effect on AFP mRNA levels [1] | induction of CYP450 (CYP1A1, EROD) activity [3] | IC50 [4] [µM] | effect on p-STAT3 levels (constitutive STAT3 activation) [5] | IC50 [6] [µM] |
| --- | --- | --- | --- | --- | --- | --- | --- | --- | --- | --- | --- | --- | --- |
| 0.46 ± 0.06 | 0.46 ± 0.06 | unusual (but reproducible) induction | – | – | – | – | – | CN1C(=O)/C(=C/c2cccc(C(F)(F)F)c2)c2ccc(Cl)cc21 [Compound 1-10, (E) 6-Chloro-1-methyl-3-(3-trifluoromethyl-benzylidene)-1,3-dihydro-indol-2-one, reference compound] | reduced AFP mRNA by almost half | did not induce CYP450 activity | 0.94 ± 0.18 | did not | 9.23 ± 0.88 |
| 0.54 ± 0.06 | 0.54 ± 0.06 | – | 8.85 (≈ 3.09 µg/mL) | 2.28 (≈ 0.795 µg/mL) | 18.3 ×10^−6 cm/s | 12.3 ×10^−6 cm/s | – | CNS(=O)(=O)c1cccc(/C=C2/C(=O)Nc3cc(Cl)ccc32)c1 [Compound 1-18, (E)-3-(6-Chloro-2-oxo-1,2-dihydro-indol-3-ylidenemethyl)-N-methyl-benzenesulfonamide] | no significant change in AFP mRNA levels | did not induce CYP450 activity | 3.99 ± 0.43 | reduced p-STAT3 levels | 2.1 |
| 0.48 ± 0.01 | 0.48 ± 0.01 | – | 37.6 (≈ 12.5 µg/mL) | 6.32 (≈ 2.1 µg/mL) | 12.9 ×10^−6 cm/s | 5.95 ×10^−6 cm/s | ½ | CNS(=O)(=O)c1cccc(/C=C2/C(=O)Nc3cc(F)ccc32)c1 [Compound 3-10, (E)-3-(6-Fluoro-2-oxo-1,2-dihydro-indol-3-ylidenemethyl)-N-methyl-benzenesulphonamide] | – | did not induce CYP450 activity | 4.4 ± 0.43 | – | 10.4 ± 0.23 |
| 0.54 ± 0.07 | 0.54 ± 0.07 | – | – | – | – | – | – | O=C1Nc2ccc(F)c(F)c2/C1=C/c1cccc(C(F)(F)F)c1 [Compound 6-6, (Z)-4,5-Difluoro-3-(3-trifluoromethyl-benzylidene)-1,3-dihydro-indol-2-one] | reduced levels to almost the same extent as 1-10 | did not induce CYP450 activity | 0.96 ± 0.11 | did not | 8.1 ± 0.73 |
